≈ marks a conversion by molar mass, not a printed value. Calls of active or inactive are those of the source. The rule behind the calls is not given here.
How the values were obtained:
[1] = tested on: Rattus norvegicus; assay: Antidiabetic activity in Sprague-Dawley rat assessed as reduction of post-prandial glucose excursion at 3 to 100 mg/kg, po administered for 60 mins followed by glucose challenge measured up to 120 mins by OGTT; type: functional, organism-based
[2] = target: T1, Hexokinase-4 (Rattus norvegicus, UniProt P17712); assay: Activation of rat glucokinase
T1 sequence (P17712 whole entry): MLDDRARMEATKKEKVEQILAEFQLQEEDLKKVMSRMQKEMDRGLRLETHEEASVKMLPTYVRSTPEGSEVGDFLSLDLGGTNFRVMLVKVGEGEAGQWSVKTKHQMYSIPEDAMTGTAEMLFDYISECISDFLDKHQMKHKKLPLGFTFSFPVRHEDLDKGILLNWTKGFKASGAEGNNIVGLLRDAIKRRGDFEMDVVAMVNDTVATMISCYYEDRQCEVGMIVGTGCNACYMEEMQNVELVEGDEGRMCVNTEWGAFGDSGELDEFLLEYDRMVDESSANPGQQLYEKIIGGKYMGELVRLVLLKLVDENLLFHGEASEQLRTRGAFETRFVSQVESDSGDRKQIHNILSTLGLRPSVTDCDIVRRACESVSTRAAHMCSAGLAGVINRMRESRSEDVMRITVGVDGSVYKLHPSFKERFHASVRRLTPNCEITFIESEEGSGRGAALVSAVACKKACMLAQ

[3] = Intrinsic clearance in human liver microsomes; type: ADME; settings: read-out: CLH
[4] = Volume of distribution at steady state in Beagle dog at 0.5 mg/kg, iv and 5 mg/kg, po; type: ADME, organism-based, Canis lupus familiaris; settings: in vivo, read-out: Vdss
[5] = Oral bioavailability in female Sprague-Dawley rat at 1 mg/kg; type: ADME, organism-based; settings: in vivo
[6] = Drug excretion in Sprague-Dawley rat urine assessed as parent compound level at 1 mg/kg, iv; type: ADME, organism-based; design: dose 1 mg/kg, route intravenous; settings: read-out: Drug excretion
[7] = Kinetic solubility of the compound; type: physicochemical; settings: read-out: Kinetic_solubility
[8] = tested on: Rattus norvegicus; assay: Volume of distribution at steady state in female Sprague-Dawley rat at 1 mg/kg, iv and po; type: ADME, organism-based; design: dose 1 mg/kg, route oral; settings: in vivo
[9] = tested on: Pancreatic islet; assay: Induction of 9 to 13 mM glucose-induced insulin secretion in rat dispersed pancreatic islet static culture at 0.4 to 12 uM; type: functional
[10] = Half life in Beagle dog at 0.5 mg/kg, iv and 5 mg/kg, po; type: ADME, organism-based, Canis lupus familiaris; settings: in vivo
[11] = Clearance in Beagle dog at 0.5 mg/kg, iv and 5 mg/kg, po; type: ADME, organism-based, Canis lupus familiaris; settings: in vivo
[12] = Half life in female Sprague-Dawley rat at 1 mg/kg, iv and po; type: ADME, organism-based; design: dose 1 mg/kg, route oral; settings: in vivo
[13] = tested on: Pancreatic islet; assay: Induction of > 22 mM glucose-induced insulin secretion in rat dispersed pancreatic islet static culture at 0.4 to 12 uM; type: functional
[14] = Oral bioavailability in Beagle dog at 5 mg/kg; type: ADME, organism-based, Canis lupus familiaris; settings: in vivo
[15] = Drug excretion in bile duct-cannulated rat bile assessed as parent compound level at 5 mg/kg, iv; type: ADME, organism-based; design: dose 5 mg/kg, route intravenous; settings: read-out: Drug excretion
[16] = Clearance in cynomolgus monkey at 0.5 mg/kg, iv and 3 mg/kg, po; type: ADME, organism-based, Macaca fascicularis; settings: in vivo
[17] = Oral bioavailability in male Sprague-Dawley rat at 1 mg/kg; type: ADME, organism-based; settings: in vivo
[18] = tested on: Pancreatic islet; assay: Induction of 3 to 5 mM glucose-induced insulin secretion in rat dispersed pancreatic islet static culture at 4 to 12 uM; type: functional
[19] = Half life in male Sprague-Dawley rat at 1 mg/kg, iv and po; type: ADME, organism-based; design: dose 1 mg/kg, route oral; settings: in vivo
[20] = tested on: Rattus norvegicus; assay: Volume of distribution at steady state in male Sprague-Dawley rat at 1 mg/kg, iv and po; type: ADME, organism-based; design: dose 1 mg/kg, route oral; settings: in vivo
[21] = Volume of distribution at steady state in cynomolgus monkey at 0.5 mg/kg, iv and 3 mg/kg, po; type: ADME, organism-based, Macaca fascicularis; settings: in vivo, read-out: Vdss
[22] = tested on: Pancreatic islet; assay: Induction of 3 to 5 mM glucose-induced insulin secretion in rat dispersed pancreatic islet static culture at 0.4 to 1.2 uM; type: functional
[23] = tested on: Rattus norvegicus; assay: Antidiabetic activity in po dosed Sprague-Dawley rat assessed as reduction of post-prandial glucose excursion administered for 60 mins followed by glucose challenge measured up to 120 mins by OGTT; type: functional, organism-based
[24] = Half life in cynomolgus monkey at 0.5 mg/kg, iv and 3 mg/kg, po; type: ADME, organism-based, Macaca fascicularis; settings: in vivo
[25] = Oral bioavailability in cynomolgus monkey at 3 mg/kg; type: ADME, organism-based, Macaca fascicularis; settings: in vivo
[26] = Passive permeability across RRCK cells; type: ADME, cell-based, Canis lupus familiaris, MDCKII-LE; settings: dog, MDCK; read-out: permeability
[27] = target: T2, Hexokinase-4 (Homo sapiens, UniProt P35557)
T2 sequence (P35557 whole entry): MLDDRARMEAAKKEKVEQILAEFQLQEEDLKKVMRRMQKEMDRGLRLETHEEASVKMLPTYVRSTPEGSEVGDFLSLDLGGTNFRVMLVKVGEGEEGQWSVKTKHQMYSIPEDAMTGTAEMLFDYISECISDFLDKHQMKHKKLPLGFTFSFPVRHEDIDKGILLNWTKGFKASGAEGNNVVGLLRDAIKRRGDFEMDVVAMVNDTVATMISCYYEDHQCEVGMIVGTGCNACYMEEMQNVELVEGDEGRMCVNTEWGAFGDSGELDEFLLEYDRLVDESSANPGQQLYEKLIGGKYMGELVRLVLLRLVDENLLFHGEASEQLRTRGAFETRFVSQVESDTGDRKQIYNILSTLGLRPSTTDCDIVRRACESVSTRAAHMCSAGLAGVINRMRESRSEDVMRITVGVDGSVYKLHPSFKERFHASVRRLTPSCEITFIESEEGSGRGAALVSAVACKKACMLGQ
Description: Activation of recombinant human glucokinase assessed as formation of glucose-6-phosphate by G6PDH/NADP coupled assay

[28] = target: hERG (KCNH2) (Homo sapiens, UniProt Q12809); assay: Inhibition of dofetilide binding to human ERG at 10 uM relative to control; settings: probe dofetilide
[29] = Selectivity ratio of EC50 for rat glucokinase to EC50 for human glucokinase
[30] = target: Voltage-gated inwardly rectifying potassium channel KCNH2 (Homo sapiens, UniProt Q12809); assay: Inhibition of dofetilide binding to human ERG
[31] = tested on: Rattus norvegicus; assay: Toxicity in Sprague-Dawley rat assessed as hypoglycemic level at 30 to 100 mg/kg, po administered for 60 mins measured over first hour prior to OGTT; type: organism-based; design: dose 30-100 mg/kg, route oral; settings: in vivo, 1 h
[32] = tested on: Rattus norvegicus; assay: Toxicity in po dosed Sprague-Dawley rat assessed as reduction in fasting plasma glucose level administered for 60 mins measured over first hour prior to OGTT; type: organism-based; settings: in vivo, 1 h

Sequence of hERG (KCNH2) (Q12809 whole entry): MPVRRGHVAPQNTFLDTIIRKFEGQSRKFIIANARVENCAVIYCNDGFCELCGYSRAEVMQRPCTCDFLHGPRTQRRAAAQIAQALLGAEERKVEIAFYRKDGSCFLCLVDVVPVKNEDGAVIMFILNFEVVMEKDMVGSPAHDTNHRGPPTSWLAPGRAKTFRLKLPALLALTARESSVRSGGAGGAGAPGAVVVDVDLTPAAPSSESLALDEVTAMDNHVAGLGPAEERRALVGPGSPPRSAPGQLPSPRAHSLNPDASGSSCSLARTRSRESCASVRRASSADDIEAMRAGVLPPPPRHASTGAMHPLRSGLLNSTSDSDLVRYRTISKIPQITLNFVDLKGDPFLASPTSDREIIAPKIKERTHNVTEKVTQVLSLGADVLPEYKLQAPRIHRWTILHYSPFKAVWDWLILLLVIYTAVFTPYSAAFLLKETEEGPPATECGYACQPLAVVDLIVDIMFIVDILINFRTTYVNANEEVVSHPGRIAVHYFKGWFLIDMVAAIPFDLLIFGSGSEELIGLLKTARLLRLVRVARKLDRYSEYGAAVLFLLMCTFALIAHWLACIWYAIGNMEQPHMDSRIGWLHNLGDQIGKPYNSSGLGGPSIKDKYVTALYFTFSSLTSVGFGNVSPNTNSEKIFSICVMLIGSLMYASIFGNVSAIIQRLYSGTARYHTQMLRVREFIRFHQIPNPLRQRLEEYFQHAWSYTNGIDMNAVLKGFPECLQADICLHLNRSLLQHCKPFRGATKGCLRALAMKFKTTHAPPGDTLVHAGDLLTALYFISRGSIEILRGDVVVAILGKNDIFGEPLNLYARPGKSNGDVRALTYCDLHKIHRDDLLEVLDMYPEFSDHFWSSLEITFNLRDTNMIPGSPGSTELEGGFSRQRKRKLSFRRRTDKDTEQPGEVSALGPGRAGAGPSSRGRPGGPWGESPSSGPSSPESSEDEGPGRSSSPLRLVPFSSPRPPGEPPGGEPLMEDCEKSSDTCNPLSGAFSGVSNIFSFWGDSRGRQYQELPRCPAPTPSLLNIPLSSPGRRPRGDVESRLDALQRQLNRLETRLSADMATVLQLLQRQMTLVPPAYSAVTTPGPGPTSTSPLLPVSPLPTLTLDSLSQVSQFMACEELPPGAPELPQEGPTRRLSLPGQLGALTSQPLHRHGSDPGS
Sequence of Voltage-gated inwardly rectifying potassium channel KCNH2 (Q12809 whole entry): as above

In the case of `CS(=O)(=O)c1ccc([C@@H](C[C@H]2CCC(=O)C2)C(=O)Nc2cnccn2)cc1Cl` [PIRAGLIATIN], the Activity [1] is reported as “Active” and the EC50 [2] is reported as 100 nM.
With `Cc1cnc(NC(=O)c2cc(Oc3cnc(C(=O)N(C)C)nc3)c3cc(C)oc3c2)cn1` [NERIGLIATIN] the CLint scaled [3] was under 8 mL/min/kg, the Vd [4] was 0.65 L/kg and the bioavailability [5] was 77%. It also gave a dose excreted [6] of 0.26%, a solubility kinetic [7] of 463 µM (≈ 200 µg/mL) and a Vdss [8] of 1.1 L/kg. The Activity [9] was “Active”, the half-life [10] was 3.3 h and the clearance [11] was 2.6 mL/min/kg. The half-life [12] was 1.2 h, the Activity [13] was “inactive” and the bioavailability [14] was 12%. For the same compound, the dose excreted [15] was 2.3%, the clearance [16] was 9.4 mL/min/kg and the bioavailability [17] was 23%. The Activity [18] was “Active”, the half-life [19] was 4.3 h and the Vdss [20] was 2.1 L/kg. For the same compound, the Vd [21] was 0.83 L/kg, the Activity [22] was “inactive” and the Activity [23] was “Dose-dependent effect”. For the same compound, the half-life [24] was 1.8 h and the bioavailability [25] was 78%.
Compound `CCc1cnc(NC(=O)c2cc(Oc3cnc(C(=O)N(C)C)cn3)c3cc(C)oc3c2)cn1` has a CLint scaled [3] of 12.2 mL/min/kg, a solubility kinetic [7] of 117 µM (≈ 52.2 µg/mL) and a Papp [26] of 23.7 ×10⁻⁶ cm/s. It also gave an EC50 [27] of 254 nM.
`CS(=O)(=O)c1ccc([C@@H](CC2CCCC2)C(=O)Nc2nccs2)cc1` [Ro-281675] showed an EC50 [2] of 235 nM.
`Cc1cnc(NC(=O)c2cc(Oc3cnc(C(=O)N4CCC4)cn3)c3cc(C)oc3c2)cn1` gave a CLint scaled [3] of under 9.3 mL/min/kg, a solubility kinetic [7] of 10 µM (≈ 4.44 µg/mL) and an inhibition at 10 µM [28] of 4%. The Papp [26] was 17.4 ×10⁻⁶ cm/s and the EC50 [27] was 85 nM.
Work on `COc1ccc2nc(NC(=O)[C@H](CC3CCCC3)c3ccc(S(=O)(=O)N4CCN(C)CC4)cc3)sc2n1` yielded an EC50 [2] of 390 nM, a Ratio EC50 [29] of under 4 and an EC50 [27] of 122 nM.
In the case of `Cc1cc2c(Oc3cnc(C(=O)N(C)C)cn3)cc(C(=O)Nc3cnccn3)cc2o1`, the CLint scaled [3] is reported as 15 mL/min/kg, the solubility kinetic [7] is reported as 30 µM (≈ 12.6 µg/mL) and the inhibition at 10 µM [28] is reported as 60%. The Papp [26] was 30 ×10⁻⁶ cm/s and the EC50 [27] was 391 nM.
With `Cc1cnc(NC(=O)c2cc(Oc3ccc(S(C)(=O)=O)cc3)c3cc(C)oc3c2)cn1` the CLint scaled [3] was 13 mL/min/kg, the solubility kinetic [7] was 3 µM (≈ 1.31 µg/mL) and the Papp [26] was 7.6 ×10⁻⁶ cm/s. For the same compound, the EC50 [27] was 870 nM and the IC50 [30] was 22000 nM.
With `COc1cnc(NC(=O)c2cc(Oc3cnc(C(=O)N(C)C)cn3)c3cc(C)oc3c2)cn1` the CLint scaled [3] was under 8 mL/min/kg, the solubility kinetic [7] was 25 µM (≈ 11.2 µg/mL) and the inhibition at 10 µM [28] was 6%. For the same compound, the Papp [26] was 15.8 ×10⁻⁶ cm/s and the EC50 [27] was 127 nM.
Work on `Cc1ccc(Oc2cc(C(=O)Nc3cnc(C)cn3)cc3oc(C)cc23)cc1` yielded a CLint scaled [3] of 47 mL/min/kg, a solubility kinetic [7] of 18 µM (≈ 6.72 µg/mL) and a Papp [26] of 0.3 ×10⁻⁶ cm/s. For the same compound, the EC50 [27] was 6610 nM.
Compound `Cc1cc2c(Oc3cnc(C(=O)N4CC(C)(O)C4)cn3)cc(C(=O)Nc3cnccn3)cc2o1` has a CLint scaled [3] of under 8 mL/min/kg, a solubility kinetic [7] of 137 µM (≈ 63.1 µg/mL) and an inhibition at 10 µM [28] of 10%. The Papp [26] was 9 ×10⁻⁶ cm/s and the EC50 [27] was over 5000 nM.
`Cc1cc2c(Oc3cnc(C(=O)N(C)C)cn3)cc(C(=O)Nc3cnc(C(F)(F)F)cn3)cc2o1` showed a CLint scaled [3] of 16.1 mL/min/kg, a solubility kinetic [7] of 6 µM (≈ 2.92 µg/mL) and an inhibition at 10 µM [28] of 18%. The Papp [26] was 9.7 ×10⁻⁶ cm/s and the EC50 [27] was 167 nM.
With `Cc1cnc(NC(=O)c2cc(Oc3ccc(C(=O)N(C)C)nc3)c3cc(C)oc3c2)cn1` the CLint scaled [3] was 11.6 mL/min/kg, the solubility kinetic [7] was 418 µM (≈ 180 µg/mL) and the inhibition at 10 µM [28] was 5%. The Papp [26] was 28.5 ×10⁻⁶ cm/s and the EC50 [27] was 480 nM.
`Cc1cc2c(Oc3cnc(C(=O)N4CC(C)C4)cn3)cc(C(=O)Nc3cnccn3)cc2o1` gave a CLint scaled [3] of under 9.6 mL/min/kg, a solubility kinetic [7] of 49 µM (≈ 21.8 µg/mL) and an inhibition at 10 µM [28] of 11%. For the same compound, the Papp [26] was 14.9 ×10⁻⁶ cm/s and the EC50 [27] was 393 nM.
For `Cn1ccc(NC(=O)c2cc(Oc3ccc(C(=O)N4CCC4)c(F)c3)c3c(c2)OC(C)(C)C3)n1`, the Activity [31] was under 60 mg/dL, the EC50 [2] was 50 nM and the Activity [32] was “Dose-dependent effect”. The Ratio EC50 [29] was under 4, the EC50 [27] was 27 nM and the Activity [23] was “Dose-dependent effect”.
Compound `Cc1cnc(NC(=O)c2cc(Oc3ncc(C(=O)N(C)C)cn3)c3cc(C)oc3c2)cn1` has a CLint scaled [3] of under 8 mL/min/kg, a solubility kinetic [7] of 485 µM (≈ 210 µg/mL) and an inhibition at 10 µM [28] of 0%. For the same compound, the Papp [26] was 34.7 ×10⁻⁶ cm/s and the EC50 [27] was over 20 nM.
